Measured values from US20110301200A1, “THYROID RECEPTOR LIGANDS” (CADILA HEALTHCARE LIMITED, priority 2008, published 2011).

Tests used:
[1] = biological target: T1, TR-α (Homo sapiens, UniProt P10827); assay: In vitro TR-α activity (in-house protocol); assay type: cell-based; conditions: for fold induction at 0.001 µM: Conc. 1 nM; for fold induction at 0.001 µM / fold induction at 0.01 µM / fold induction at 0.1 µM / fold induction at 1 µM: read-out: TR-α Fold Induction w.r.t T3(100 nm); for fold induction at 0.01 µM: Conc. 10 nM; for fold induction at 0.1 µM: Conc. 100 nM; for fold induction at 1 µM: Conc. 1000 nM
T1 sequence (P10827 1-410 isoform P10827-2): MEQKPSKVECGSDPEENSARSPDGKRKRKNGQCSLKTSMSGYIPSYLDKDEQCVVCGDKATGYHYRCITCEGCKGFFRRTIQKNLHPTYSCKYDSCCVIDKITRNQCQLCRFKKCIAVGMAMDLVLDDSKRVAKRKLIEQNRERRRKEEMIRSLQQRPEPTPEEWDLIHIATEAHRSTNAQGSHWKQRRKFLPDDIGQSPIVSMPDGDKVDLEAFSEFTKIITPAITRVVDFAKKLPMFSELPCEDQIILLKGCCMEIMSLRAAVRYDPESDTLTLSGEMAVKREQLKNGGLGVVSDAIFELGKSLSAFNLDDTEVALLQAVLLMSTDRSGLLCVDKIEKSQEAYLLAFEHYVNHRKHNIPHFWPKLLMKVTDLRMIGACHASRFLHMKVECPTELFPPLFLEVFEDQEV
Description: (§1) In vitro TR-α & TR-β activities were determined as per in-house protocols and the results of representative compounds are provided in tables 1 & 2 below as a proof of the efficacies of the novel class of compounds disclosed above.

[2] = biological target: T2, TR-β (Homo sapiens, UniProt P10828); assay: In vitro TR-β activity (in-house protocol); assay type: cell-based; conditions: for fold induction at 0.001 µM: Conc. 1 nM; for fold induction at 0.001 µM / fold induction at 0.01 µM / fold induction at 0.1 µM / fold induction at 1 µM: read-out: TR-β Fold Induction w.r.t T3(100 nm); for fold induction at 0.01 µM: Conc. 10 nM; for fold induction at 0.1 µM: Conc. 100 nM; for fold induction at 1 µM: Conc. 1000 nM
T2 sequence (P10828 1-461): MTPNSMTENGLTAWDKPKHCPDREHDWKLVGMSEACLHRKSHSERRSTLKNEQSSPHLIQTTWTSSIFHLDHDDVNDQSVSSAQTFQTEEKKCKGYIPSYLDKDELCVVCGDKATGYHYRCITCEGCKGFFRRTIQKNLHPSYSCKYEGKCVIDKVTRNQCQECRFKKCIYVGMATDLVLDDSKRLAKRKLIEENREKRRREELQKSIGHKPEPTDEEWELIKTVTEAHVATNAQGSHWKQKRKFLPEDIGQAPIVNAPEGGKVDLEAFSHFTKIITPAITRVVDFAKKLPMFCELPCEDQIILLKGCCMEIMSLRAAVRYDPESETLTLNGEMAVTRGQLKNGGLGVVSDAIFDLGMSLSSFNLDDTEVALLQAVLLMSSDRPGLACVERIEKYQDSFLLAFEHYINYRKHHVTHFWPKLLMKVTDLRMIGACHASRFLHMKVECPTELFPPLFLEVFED
Description: as §1

[3] = tested on: cholesterol-fed rats; assay: Cholesterol lowering and change in heart rate in cholesterol-fed rats; assay type: in vivo, rat; conditions: treated for 7 days
Description: Cholesterol lowering effect of T3 and selected compounds disclosed in the present invention on cholesterol lowering and change in heart rate in cholesterol-fed rats (treated for 7 days) was determined according to the general protocol described in PNAS, vol. […] Therefore, these compounds have the potential to be further developed as selective TR-beta agonists for the treatment of human & other animals in need of such treatment.

| EC50 [1] [nM] | EC50 [2] [nM] | fold induction at 0.001 µM [1] | fold induction at 0.01 µM [1] | fold induction at 0.1 µM [1] | fold induction at 1 µM [1] | fold induction at 0.001 µM [2] | fold induction at 0.01 µM [2] | fold induction at 0.1 µM [2] | fold induction at 1 µM [2] | Structure (SMILES) | % Change in Heart Rate ([3]; oral 0.1 mg/kg) [%] | % Change in Total Cholesterol ([3]; oral 0.1 mg/kg) [%] | % Change in Heart Rate ([3]; oral 0.2 mg/kg) [%] | % Change in Total Cholesterol ([3]; oral 0.2 mg/kg) [%] | % Change in Heart Rate ([3]; oral 13 μg/kg) [%] | % Change in Total Cholesterol ([3]; oral 13 μg/kg) [%] | % Change in Heart Rate ([3]; oral 0.5 mg/kg) [%] | % Change in Total Cholesterol ([3]; oral 0.5 mg/kg) [%] |
| --- | --- | --- | --- | --- | --- | --- | --- | --- | --- | --- | --- | --- | --- | --- | --- | --- | --- | --- |
| 5.12 | 0.99 | – | – | – | – | – | – | – | – | CCC(C)c1cc(Oc2c(Br)cc(C=NOC(C)C(=O)O)cc2Br)ccc1O (stereo not shown) [Example 14, 2-(((3,5-dibromo-4-(3-(sec-butyl)-4-hydroxyphenoxy)benzylidene)amino)oxy)propanoic acid] | −2 | −44 | – | – | – | – | – | – |
| – | – | 11.2 | 11.5 | 17.6 | 45.6 | 8.41 | 9.07 | 17.7 | 60.5 | CC(C)NS(=O)(=O)c1cc(Oc2c(Br)cc(C=NOC(C)C(=O)O)cc2Br)ccc1O (stereo not shown) [Example 37, 2-(((3,5-dibromo-4-(4-hydroxy-3-(N-isopropylsulfamoyl)phenoxy)benzylidene)amino)oxy)propanoic acid] | – | – | – | – | – | – | – | – |
| – | – | 17.7 | 9.9 | 20.4 | 91.4 | 7.3 | 4.48 | 15 | 60.8 | CC(ON=Cc1cc(Br)c(Oc2ccc(O)c(S(=O)(=O)N3CCCC3)c2)c(Br)c1)C(=O)O (stereo not shown) [Example 42, 2-(((3,5-dibromo-4-(4-hydroxy-3-(pyrrolidin-1-ylsulfonyl)phenoxy)benzylidene)amino)oxy)propanoic acid] | – | – | – | – | – | – | – | – |
| – | – | 18.5 | 52.1 | 102 | 121 | 16.6 | 48.9 | 105 | 86.1 | CC(ON=Cc1cc(Br)c(Oc2ccc(O)c(C(C)(C)C)c2)c(Br)c1)C(=O)O (stereo not shown) [Example 24, 2-(((3,5-dibromo-4-(3-(tert-butyl)-4-hydroxyphenoxy)benzylidene)amino)oxy)propanoic acid] | – | – | – | – | – | – | – | – |
| – | – | 29.6 | 63.9 | 76.8 | 56.9 | 23.1 | 73.4 | 86.7 | 94.6 | CCC(ON=Cc1cc(Br)c(Oc2ccc(O)c(C(C)C)c2)c(Br)c1)C(=O)O (stereo not shown) [Example 13, 2-(((3,5-dibromo-4-(4-hydroxy-3-isopropylphenoxy)benzylidene)amino)oxy)butanoic acid] | – | – | – | – | – | – | – | – |

The remaining lines, values behind:

| Structure (SMILES) | EC50 [1] [nM] | EC50 [2] [nM] | fold induction at 0.001 µM [1] | fold induction at 0.01 µM [1] | fold induction at 0.1 µM [1] | fold induction at 1 µM [1] | fold induction at 0.001 µM [2] | fold induction at 0.01 µM [2] | fold induction at 0.1 µM [2] | fold induction at 1 µM [2] | % Change in Heart Rate ([3]; oral 0.1 mg/kg) [%] | % Change in Total Cholesterol ([3]; oral 0.1 mg/kg) [%] | % Change in Heart Rate ([3]; oral 0.2 mg/kg) [%] | % Change in Total Cholesterol ([3]; oral 0.2 mg/kg) [%] | % Change in Heart Rate ([3]; oral 13 μg/kg) [%] | % Change in Total Cholesterol ([3]; oral 13 μg/kg) [%] | % Change in Heart Rate ([3]; oral 0.5 mg/kg) [%] | % Change in Total Cholesterol ([3]; oral 0.5 mg/kg) [%] |
| --- | --- | --- | --- | --- | --- | --- | --- | --- | --- | --- | --- | --- | --- | --- | --- | --- | --- | --- |
| CC(ON=Cc1cc(Br)c(Oc2ccc(O)c(C(C)C)c2)c(Br)c1)C(=O)O (stereo not shown) [Example 10, 2-(((3,5-dibromo-4-(4-hydroxy-3-isopropylphenoxy)benzylidene)amino)oxy)propanoic acid] | 25 | 3.25 | – | – | – | – | – | – | – | – | – | – | 9.5 | −45 | – | – | – | – |
| N[C@@H](Cc1cc(I)c(Oc2ccc(O)c(I)c2)c(I)c1)C(=O)O [Example T3, reference compound] | – | – | – | – | – | – | – | – | – | – | – | – | – | – | 14 | −46 | – | – |
| CC(C)c1cc(Oc2c(Br)cc(C=NOCC(=O)O)cc2Br)ccc1O [Example 3, 2-(((3,5-dibromo-4-(4-hydroxy-3-isopropylphenoxy)benzylidene)amino)oxy)acetic acid] | – | – | 18.3 | 38.5 | 93.8 | 133 | 17.7 | 49.5 | 92.1 | 138 | – | – | – | – | – | – | 4.2 | −68 |
| CC(ON=Cc1cc(Br)c(Oc2ccc(O)c(-c3ccccc3)c2)c(Br)c1)C(=O)O (stereo not shown) [Example 11, 2-(((3,5-dibromo-4-((6-hydroxy-[1,1′-biphenyl]-3-yl)oxy)benzylidene)amino)oxy)propanoic acid] | – | – | 16.2 | 32.8 | 70.2 | 49.4 | 16.1 | 39.3 | 73.8 | 65.3 | – | – | – | – | – | – | – | – |
| O=C(O)CON=Cc1cc(Br)c(Oc2ccc(O)c(-c3ccccc3)c2)c(Br)c1 [Example 7, 2-(((3,5-dibromo-4-((6-hydroxy-[1,1′-biphenyl]-3-yl)oxy)benzylidene)amino)oxy)acetic acid] | 5.2 | 2.9 | – | – | – | – | – | – | – | – | – | – | – | – | – | – | – | – |
| O=C(O)CON=Cc1cc(Cl)c(Oc2ccc(O)c(-c3ccccc3)c2)c(Cl)c1 [Example 4, 2-(((3,5-dichloro-4-((6-hydroxy-[1,1′-biphenyl]-3-yl)oxy)benzylidene)amino)oxy)acetic acid] | – | – | 11 | 9.45 | 14 | 35.5 | 11.4 | 10.5 | 19.3 | 64.4 | – | – | – | – | – | – | – | – |
